The source of these data is patent publication US5408036A, “Isolated metallopolypeptide: compositions and synthetic methods” (The Scripps Research Institute, priority 1993, dated 1995).

Residues, ends and D or L forms follow the SMILES beside them.

The nature of data set [1]: CD titration: dependence of [θ]222 on free metal ion concentration, CdCl2. Type of data set: binding. As to conditions: CdCl2, pH 7.5; peptide 6.1×10^-5 M in 5 mM sodium borate, 21° C. From the text: (§1) FIG. 4 illustrates the dependence of mean residue molar ellipticity at 222 nm ([.THETA.]222 ×10^-3) of peptides SEQ ID NO's:2 AND 3 on the concentration of free metal ions when measured as described in Example 3A(2).
(§2) The peptide metal salt solution admixtures prepared as in Example 2A were subjected to CD analyses according to published procedures to measure the degree of stability induced by metal ion complexation with peptides. Greenfield et al., Biochem, 8:4108 (1969) and Johnson, Ann. Rev. Biophvs. Chem., 17:145 (1988). All CD data reported herein have an uncertainty of ±2 to 5% for a 100% helix, [θ]222 =-35,000, and are based on several CD measurements of both peptides SEQ ID NO's:2 and 3 in the presence and absence of metal ions in various TFE/H20 mixtures at -10° to 20° C.
(§3) Both Cu(II) and Zn(II) bound peptide SEQ ID NO:3 with similar affinities and increased the helical content to the same extent.

Data set [2] is described as follows: CD titration: dependence of [θ]222 on free metal ion concentration, ZnCl2. Type of data set: binding.
From the text: as §1, §2, §3

Data set [3] in a line: CD titration: dependence of [θ]222 on free metal ion concentration, CuCl2. The class given is binding. Particulars: CuCl2, pH 5.3; peptide 6.1×10^-5 M in 5 mM sodium borate, 21° C.
From the text: as §1, §2, §3

Data set [4] in a line: CD titration: dependence of [θ]222 on free metal ion concentration, NiCl2. The class given is binding. Particulars: NiCl2, pH 6.3; peptide 6.1×10^-5 M in 5 mM sodium borate, 21° C.
From the text: as §1, §2, §3

Data set [5] in a line: Circular dichroism (CD) to measure degree of secondary structure (alpha-helicity). The class given is physicochemical. On the procedure:
ID No's. 3 and 4. The analysis was performed as described above.
Proton nuclear magnetic resonance spectra were recorded at 300MHz on Bruker AM300 spectrometer and are reported in parts per million (ppm) downfield from Me4 Si. Ultraviolet-visible spectra were recorded on Aviv Associates 14DS and Milton Roy Spectronic 3000 Array spectrometers. Circular dichroism measurements were made on Aviv Associates 62DS spectrometer equipped with a thermostable cell holder using 10, 1, and 0.1 mm Hellma quartz cells. All reported CD data have an uncertainty of ±2-5%. All ellipticity measurements are expressed as mean residue ellipticity, [θ], having the units deg·cm^2 ·dmol-^1.
A general note: CD spectra are sensitive to the conformation of chiral molecules.

The nature of data set [6]: Metal ion selectivity and relative affinities by CD analysis. Type of data set: binding. Particulars: CD analysis; peptide SEQ ID NO:11 at pH 6.0. From the text: Metal ion selectivity is an expected consequence of site specific metal-ligand interaction. The extent of helical induction, to a first approximation, depends on the affinity of metal ion toward the ligands employed, and on the compatibility of metal ion geometry and coordination sphere with the alpha-helical conformation. Thus, although numerous metal ions can induce and stabilize alpha-helix formation, the metal ion having the greatest relative affinity for the ligands employed is preferred and can readily be determined. […]
Peptides, prepared as in Example 1, and admixed with various metal salt solutions as described in Example 2B, were subjected to CD analysis to characterize metal ion selectivity with respect to the position of the metal binding site in the alpha-helical sequence.

Data set [7] in a line: Heat denaturation assay to measure melting temperatures. Type of data set: physicochemical. The method, then: In order to assess differences in helix stability between the metal ion complexed and uncomplexed forms of peptides Seq. ID No's. 3 and 4, the conformational stability of each peptide in the presence and absence of transition metal ions was determined from heat denaturation studies according to published procedures. Pace et al., In Protein structure, p. 311., IRL Press, (1989). The analysis of the thermal denaturation curves afforded linear ΔG vs. T and van't Hoff plots. […] Complexed peptides Seq. ID No's.
Because tris-bipyridyl-metal ion coordination complexes are chiral and can form either a left-handed or a right-handed helix, two diastereomeric tri-helical structures can possibly be formed. The stereogenic environment of the ensuing parallel tri-helical topology as well as the geometrical constraints imposed by the overall C3 symmetry of the coordination complex was expected, however, to enforce a high degree of diastereoselectivity in the assembly process. The CD spectrum (in the region of 280 and 330 nm) of the peptide in the presence of Ni(II) indicated the formation of one diastereomer having a left-handed helical configuration. Such a behavior is also consistent with the expected left handed supercoil of the tri-helical metallopolypeptide. The analysis of the thermal denaturation curves for the metallopolypeptide in the presence of Ni(II) yielded linear ΔG vs T and van't Hoff plots.

The nature of data set [8]: Absorption spectroscopy pH profile of Ru(III)-peptide complexes. As to conditions: from absorption data vs pH. The class given is physicochemical. From the text: The Ru(III)-peptide SEQ ID NO:3 complex prepared as in Example 2B was subjected to absorption spectroscopy to further confirm the formation of a metallopeptide complex.
The pronounced shift in absorption maxima with increasing pH value is consistent with the behavior of the Ru(III) ions containing coordinated imidazoles and is attributed to N-H deprotonation at the "pyrrole nitrogen", Sunberg et al., J. Am. Chem. Soc., 96:381 (1974). […] The spectral similarity with the simple ruthenium(III)imidazole complexes and the characteristically facile metal-ion promoted imidazole NH ionization provide further support for the formation of the metallopeptide complex.

[9] abbreviates: in the presence of Cu(II) ions (CuSO4, solution 13) at 0° C.

What is called Kd is the equilibrium constant for the complex coming apart. High values mean lower affinity, low ones higher affinity. As for `CC(=O)N[C@@H](C)C(=O)N[C@@H](CCC(=O)O)C(=O)N[C@@H](C)C(=O)N[C@@H](C)C(=O)N[C@@H](C)C(=O)N[C@@H](CCCCN)C(=O)N[C@@H](CCC(=O)O)C(=O)N[C@@H](C)C(=O)N[C@@H](C)C(=O)N[C@@H](C)C(=O)N[C@@H](CCCCN)C(=O)N[C@@H](Cc1c[nH]cn1)C(=O)N[C@@H](C)C(=O)N[C@@H](C)C(=O)N[C@@H](C)C(=O)N[C@@H](Cc1c[nH]cn1)C(=O)N[C@@H](C)C(N)=O` [peptide SEQ ID NO:3, Ac--Ala--Glu--Ala--Ala--Ala--Lys--Glu--Ala--Ala--Ala--Lys--His--Ala--Ala--Ala--His--Ala--CONH2] (Ac-AEAAAKEAAAKHAAAHA-NH2), the Kd in data set [1] was 220 µM; in data set [2] (ZnCl2, pH 7.5, peptide 6.1×10^-5 M in 5 mM sodium borate, 21° C.), 75 µM; in data set [3] it was 66 µM; in data set [4] it was 210 µM. For the same molecule, in data set [2] (CD analysis, ZnCl2), the “effect of Zn(II) on helical content” value is reported as “considerable helical induction”. In addition, in data set [5] (NaF up to 250 mM, 5 mM sodium borate), the “dependence of helicity on added NaF” value was “independent of concentration of added NaF up to 250 mM”. The alpha-helicity entry is on record as “about 90%” in data set [5] (setting [9]) and 45% in data set [5] (room temperature in water). The “θ222” value in data set [5] (setting [9]) is reported as -31,100; in data set [5] (room temperature in water), -16,600. In addition, in data set [5] (presence and absence of metal ions, 0.5-70 μM), the “dependence of CD spectra on peptide concentration” value is reported as “independent of the peptide concentration”. For the same molecule, in data set [6], the “metal ions bound, order of affinity” value is “Ni(II), Cd(II), Cu(II) and Zn(II) in descending order of affinity”. In addition, the “melting temperature (Tm)” value in data set [7] came out at 11 °C.
For “Ru(III)-peptide SEQ ID NO:4 complex: exchange-inert macrocyclic cis-[Ru(NH3)4 (L)2 ]^3+ complex of peptide SEQ ID NO:4 through two His residues at i and i+4 (AEAAAKHAAAHEAAAKA; Ru(III) tetraammine macrocyclic complex via two His)”, in data set [5] (room temperature in water), the alpha-helicity came to 50% and the θ222 was -17,300. Moreover, in data set [7], the “melting temperature (Tm)” value came to 9.5 °C. Moreover, in data set [8], the “pKa of the imidazole NH of the coordinated histidine” value turned out to be 7.5.
